Measured values published in US6005007A, “Retinoids, methods for their production and use” (priority 1997, dated 1999).

Experiments:
RPMI 8226 = test: Incorporation of 3H-thymidine, RPMI 8226; format: cell-based; details: Homo sapiens, 96 hours incubation, then 6 hours 3H-thymidine, read-out: TdR IC50 RPMI 8226
RXRβ = biological target: T1, RXRβ (Mus musculus, UniProt P28704); test: Co-transfection assay, RXRβ agonist activity; format: cell-based; details: CV-1 cells, luciferase reporter, read-out: RXRβ Pot
T1 sequence (P28704 1-520): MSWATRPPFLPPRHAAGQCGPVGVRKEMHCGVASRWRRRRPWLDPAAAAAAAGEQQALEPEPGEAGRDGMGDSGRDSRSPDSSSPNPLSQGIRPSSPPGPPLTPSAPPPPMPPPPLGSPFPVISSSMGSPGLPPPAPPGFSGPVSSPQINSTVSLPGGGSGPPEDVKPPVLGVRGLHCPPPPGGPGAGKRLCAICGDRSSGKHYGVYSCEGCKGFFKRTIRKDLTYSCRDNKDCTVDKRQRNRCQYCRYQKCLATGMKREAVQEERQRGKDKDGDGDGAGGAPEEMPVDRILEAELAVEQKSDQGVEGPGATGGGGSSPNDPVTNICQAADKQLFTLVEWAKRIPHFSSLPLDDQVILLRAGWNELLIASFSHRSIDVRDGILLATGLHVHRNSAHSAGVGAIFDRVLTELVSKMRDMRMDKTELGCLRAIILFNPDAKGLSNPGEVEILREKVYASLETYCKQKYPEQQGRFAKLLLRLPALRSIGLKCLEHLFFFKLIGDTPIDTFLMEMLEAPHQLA

AML-193 = test: Incorporation of 3H-thymidine, AML-193; details: Homo sapiens, read-out: TdR IC50 AML-193 (nM)
RAR and RXR receptors = test: Co-transfection assay, RAR and RXR subfamilies (summary in words); format: cell-based; details: CV-1 cells
Procedure: (§1) Utilizing the "cis-trans" or "co-transfection" assay described by Evans et al., Science, 240:889-95 (May 13, 1988), the disclosure of which is herein incorporated by reference, the retinoid compounds of the present invention were tested and found to have strong, specific activity as either selective RXR agonists, or as pan-agonist activators of both RAR and RXR receptors. This assay is described in further detail in U.S. Pat. Nos. 4,981,784 and 5,071,773, the disclosures of which are incorporated herein by reference.
In the co-transfection assay, a cloned cDNA for an IR (e.g., human RARα, RARβ, RXRγ) under the control of a constitutive promoter (e.g., the SV 40 promoter) is introduced by transfection (a procedure to induce cells to take up foreign genes) into a background cell substantially devoid of endogenous IRs. This introduced gene directs the recipient cells to make the IR protein of interest. A second gene is also introduced (co-transfected) into the same cells in conjunction with the IR gene. This second gene, comprising the cDNA for a reporter protein, such as firefly luciferase (LUC), controlled by an appropriate hormone responsive promoter containing a hormone response element (HRE). This reporter plasmid functions as a reporter for the transcription-modulating activity of the target IR. Thus, the reporter acts as a surrogate for the products (mRNA then protein) normally expressed by a gene under control of the target receptor and its native hormone.
The co-transfection assay can detect small molecule agonists or antagonists of target IRs. Exposing the transfected cells to an agonist ligand compound increases reporter activity in the transfected cells. This activity can be conveniently measured, e.g., by increasing luciferase production, which reflects compound-dependent, IR-mediated increases in reporter transcription. […]. Increasing concentrations of a suspected antagonist will decrease the reporter signal (e.g., luciferase production). The co-transfection assay is therefore useful to detect both agonists and antagonists of specific IRs. […]

ME 180 = test: Incorporation of 3H-thymidine, ME 180; format: cell-based; details: Homo sapiens, ME-180; 96 hours incubation, then 6 hours 3H-thymidine; read-out: TdR IC50 ME 180
RAR receptors = test: Co-transfection assay, RAR subfamily (summary in words); format: cell-based; details: CV-1 cells
Procedure: as §1
In the co-transfection assay, a cloned cDNA for an IR (e.g., human RARα, RARβ, RXRγ) under the control of a constitutive promoter (e.g., the SV 40 promoter) is introduced by transfection (a procedure to induce cells to take up foreign genes) into a background cell substantially devoid of endogenous IRs. This introduced gene directs the recipient cells to make the IR protein of interest. A second gene is also introduced (co-transfected) into the same cells in conjunction with the IR gene. […]
The co-transfection assay can detect small molecule agonists or antagonists of target IRs. […] This activity can be conveniently measured, e.g., by increasing luciferase production, which reflects compound-dependent, IR-mediated increases in reporter transcription. […]

## CC(/C=C/CC1(c2ccc3c(c2)C(C)(C)CCC3(C)C)CC1)=C\C(=O)O [Compound 101, (2E, 4E)-6-[1-(5,5,8,8-Tetramethyl-5,6,7,8-tetrahydronaphtha-len-2-yl)cyclopropanyl]-3-methyl hexadienoic acid]
RPMI 8226
  IC50: < 0.1 nM
RXRβ
  EC50: 6 nM
AML-193
  IC50: < 0.1 nM
RAR and RXR receptors
  RXR selectivity / pan-agonist activity: pan-agonists that display superior potency profiles to that of the known pan-agonist compound 9-cis retinoic acid
ME 180
  IC50: 0.9 nM

## CC(/C=C/CC1(c2cc(C(C)(C)C)cc3c2CCC3(C)C)CC1)=C\C(=O)O [Compound 107, (2E, 4E)-6-[1-(6-t-butyl-1,1-dimethyl-indan-4-yl)-cyclopropyl]-3-methyl hexadienoic acid]
RAR receptors
  activity for the RAR receptors: no activity at all
RXRβ
  EC50: 22 nM
RAR and RXR receptors
  RXR selectivity / pan-agonist activity: extremely potent RXR selective compounds

## CC(/C=C/CC1(c2ccc3c(c2)C(C)(C)CCC3(C)C)CCCC1)=C\C(=O)O [Compound 108, (2E, 4E)-6-[(5,5,8,8-Tetramethyl-5,6,7,8-tetrahydronaphtha-len-2-yl)cyclopentane-1-yl]-3-methyl hexadienoic acid]
RAR receptors
  activity for the RAR receptors: no activity at all
RAR and RXR receptors
  RXR selectivity / pan-agonist activity: extremely potent RXR selective compounds
